For assay [1], the system named is LPS-stimulated macrophages. Description: Cytokine secretion in TLR-stimulated bone-marrow derived macrophages. Type of assay: cell-based, mouse. How it is done: (§1) Bone-marrow derived macrophages were differentiated for 7 days in DMEM supplemented with 5 ng/ml recombinant M-CSF (R&D systems), 2 mM glutamine, 10% foetal calf serum, penicillin and streptomycin.
(§2) Following stimulation with ligands, the cell culture medium was removed, clarified by centrifugation for 10 min at 14000×g and the concentration of TNFα, IL-6, IL-10, IL-12p40, and RANTES were measured using the Bio-Plex Pro Assay system from Bio-Rad. IFNβ was measured using an ELISA kit from R&D Systems according to the manufacturers' instructions.
RNA was extracted using the RNeasy Micro Kit (Qiagen). cDNA was generated using the iScript cDNA synthesis kit and quantified by qPCR using the SsoFast EvaGreen Supermix (Bio-Rad Laboratories). […] Fold-induction for each gene was reported relative to untreated control cells, which was set to 1. The concentrations of TNFα, IL-6, IL-10, IL-12p40, and RANTES in culture supernatants were measured using the Bio-Plex Pro Assay system from Bio-Rad. Further details in supplementary information.
Following stimulation with ligands, the cell culture medium was removed, clarified by centrifugation for 10 min at 14000×g and the concentration of TNFα, IL-6, IL-10, IL-12p40 and RANTES were measured using the Bio-Plex Pro Assay system from Bio-Rad. IL-1ra and IFNβ were measured using ELISA kits from R&D Systems.

Another assay relates to AMPK-related kinases. Type of assay: biochemical. Conditions: members of the AMPK subfamily other than SIKs. How it is done: Recombinant SIK1, SIK2, SIK3 were expressed as GST-fusion proteins in HEK293 cells and purified on a glutathione-Sepharose column. […] FLAG-CRTC3 was immunoprecipitated using anti-FLAG M2 agarose, washed in kinase buffer (50 mM Tris/HCl pH 7.4, 10 mM Mg acetate, 0.1 mM EGTA, 2 mM DTT) and reactions initiated by adding 4 U/ml recombinant kinase with 0.1 mM ATP (specific activity 3000 cpm/pmol). Phosphorylation of CRTC3 was monitored by autoradiography as well as immunoblotting using phosphospecific antibodies raised against Ser162, Ser329 and Ser370. […] Kinase profiling was performed as previously described (7) and performed by the International Centre for Kinase Profiling (www.kinase-screen.mrc.ac.uk).

The subject of a further assay is LPS-stimulated BMDMs. Put plainly: Expression of macrophage markers in LPS-stimulated BMDMs (qPCR). In kind it is cell-based, mouse. Conditions: for LPS-stimulated expression of SPHK1, LIGHT and Arginase 1: 500 nM. As to the method:
FIGS. 10A to 10E. Inhibition of the LKB1-SIK-CRTC3-IL10 signaling axis drives the expression of markers of regulatory macrophages. (FIG. 10A) Effect of SIK inhibitors on the LPS-stimulated expression of LIGHT, SPHK1, Arg1 and IL-1ra (n=4, mean±SD). […] (FIG. 10C) Elevated expression of markers of regulatory macrophage in LKB1−/− macrophages. BMDMs were generated from LysM-Cre/LKB1+/+ and LysM-Cre/LKB1flox/flox mice and stimulated with 100 ng/ml LPS (mean±SD, n=3). (FIG. 10D) CRTC3 is required for the induction of markers of regulatory macrophages. […] LIGHT and SPHK1 mRNA was measured at 2 h and Arg1 at 8 h post-LPS stimulation (mean±SD, n=4). […] The experiment was carried out as in (FIG. 10D) except that BMDMs were generated from IL-10+/+ and IL-10−/− mice (mean±SD, n=4).
mRNA was extracted from cells using the RNeasy Micro Kit following the manufacturers' instructions (Qiagen). cDNA was generated from 1 μg of total RNA using the iScript cDNA synthesis kit and quantified by qPCR using the SsoFast EvaGreen Supermix on a CFX96 real time system (Bio-Rad Laboratories). The relative expression of each gene was calculated from Ct values using the Pfaffl method (5) and was normalized against the mRNA levels of 18S RNA or GAPDH. Results are reported relative to untreated control cells, which was set to 1. The following primers were used: […]
(In general: Quantitative PCR measures a nucleic acid by following its amplification.)

The subject of a further assay is CRTC3. Description: IL-10 production in macrophages after siRNA knockdown of CRTC3. Type of assay: cell-based, mouse. The note with it: TLR/LPS-stimulated macrophages. An excerpt: BMDMs were transfected with siRNA oligonucleotides against CRTC1, CRTC2, CRTC3 or non-targetting oligonucleotides as a negative control. […] Gene expression was quantified by qPCR and reported relative to mRNA levels measured in untreated cells (1.0). Knockdown efficiency was monitored by qPCR (mean±SD, n=4).
RNAi in Macrophages RAW264.7 cells or BMDMs were transfected with 100 pmol of SMARTpool siRNA oligos against CREB, CRTC1, CRTC2, CRTC3 or a non-targetting control (Dharmacon) using AMAXA nucleofection. Cells were cultured for 24 h prior to incubation with inhibitors for 1 h followed by stimulation for 1 h with 100 ng/ml LPS. Gene expression was measured by real-time quantitative PCR. For shRNA knockdown of SIKs, lentivirus was generated according to the manufacturer's instructions (Sigma) and RAW264.7 cells were infected using virus harvested 48 and 72 h post-transfection. Infected cells were selected using 3 μg/ml puromycin. QPCR

In the next assay the test system is IL-10−/− macrophages. Put plainly: Cytokine production in IL-10−/− macrophages. Type of assay: cell-based, mouse. Conditions: all TLR ligands examined other than LPS. How it is done:
FIGS. 2A to 2G. […] As in A except that cells were stimulated for 2 h with LPS.
IL-10^−/− mice on a C57Bl/6 background were purchased from The Jackson Laboratory, Maine, USA. C57Bl/6, and IL-10^−/− mice were bred at the University of Dundee under specific pathogen-free conditions in accordance with European Union regulations. Work was approved by local ethical review and was performed with a UK Home Office project license.
as §1, §2

The test system of the next assay is TBK1/IKKε−/− fibroblasts. Description: nurr77 mRNA in IL-1 stimulated TBK1/IKKε−/− embryonic fibroblasts. The note with it: fibroblasts not expressing the IKK-related kinases. Type of assay: cell-based, mouse. As to the method:
Bone marrow-derived macrophages were differentiated for 7 days in DMEM supplemented with 5 ng/ml recombinant M-CSF (R&D systems), 2 mM glutamine, 10% foetal calf serum (FCS), penicillin and streptomycin. RAW264.7 cells and immortalized mouse embryonic fibroblasts (MEFs) from TBK1/IKKε^+/−, TBK1/IKKε^−/−, LKB1^+/+ and LKB1^−/− mice were cultured in DMEM containing 10% FCS, 2 mM glutamine and penicillin and streptomycin, while THP-1 monocytes were grown in RPMI-1640 supplemented with 10% FCS and antibiotics. For the culture of primary human macrophages, PBMCs were isolated from human blood using Ficoll and the monocytes were purified using anti-CD14 magnetic beads (Miltenyi Biotec). Monocytes were differentiated into macrophages for 6 days in the presence of 100 ng/ml M-CSF.

Structures are written as SMILES. Entries after “also recorded” stand apart in the source; their conditions may differ.

As for `COc1ccc(N(C(=O)Nc2c(C)cccc2C)c2cc(Nc3ccc(N4CCN(C)CC4)cc3)ncn2)c(OC)c1` [HG-9-91-01, 1-(2,4-dimethoxyphenyl)-3-(2,6-dimethylphenyl)-1-(6-((4-(4-methylpiperazin-1-yl)phenyl)amino)pyrimidin-4-yl)urea], in assay [1] (LPS-stimulated macrophages), the IL-10 secretion entry was “stimulate IL-10 secretion in a dose dependent manner; also recorded: increased” and the pro-inflammatory cytokine secretion result is “greatly suppressed”. The “inhibition of AMPK-related kinases” value in the assay with AMPK-related kinases is given as “did not inhibit any other member”. Further, the “LPS-stimulated expression of SPHK1, LIGHT and Arginase 1” value in the assay on LPS-stimulated BMDMs (IL-10−/− macrophages) is given as “greatly reduced”. Besides, in the assay on LPS-stimulated BMDMs (cells treated with CRTC3 siRNA), the “LPS-stimulated expression of SPHK1, LIGHT and Arginase 1” value is “did not occur”. For the same compound, the “effect of compound on IL-10 production after siRNA knockdown of CRTC3” value with CRTC3 is on record as “abolishes the effects; also recorded: CRTC3 was required”.

On to `O=C(NCCCNc1nc(Nc2cccc(CN3CCOCC3)c2)ncc1C1CC1)C1CCC1` [MRT67307], for which the “secretion of pro-inflammatory cytokines” value in the assay with IL-10−/− macrophages was “failed to suppress”. Further, in the assay on TBK1/IKKε−/− fibroblasts, the “transcription of CREB-dependent nurr77 gene” value is recorded as “could still enhance”. Moreover, the IFNβ secretion result in assay [1] (LPS) is listed as “potently inhibited”. For the same compound, in assay [1] (LPS-stimulated macrophages), the IL-10 secretion entry was “stimulate IL-10 secretion in a dose dependent manner; also recorded: far higher levels of IL-10” and the pro-inflammatory cytokine secretion entry is on record as “much lower levels of pro-inflammatory cytokines”. Besides, in assay [1] (in response to TLR ligands), the IL-10 secretion entry was “high levels of IL-10” and the IL-12p40 secretion entry is given as “low levels of IL-12p40”. Further, in the assay with AMPK-related kinases, the “inhibition of AMPK-related kinases” value is given as “potently inhibits”. Moreover, the “IL-1ra mRNA” value in the assay with LPS-stimulated BMDMs (LPS-stimulated macrophages) is “greatly increased”. Further, in the assay on LPS-stimulated BMDMs (TLR/LPS-stimulated macrophages), the “mRNAs of regulatory macrophage markers (arginase-1, SPHK1, LIGHT)” value is reported as “stimulating the production”. In addition, in the assay on LPS-stimulated BMDMs (quiescent macrophages), the “switch of macrophage programme from classically activated towards regulatory phenotype” value was “switched their maturation programme from the classically activated route towards the regulatory phenotype”. In addition, the “effect of compound on IL-10 production after siRNA knockdown of CRTC3” value in the assay with CRTC3 is on record as “completely suppressed the effects”.

The values are drawn from patent US10233157B2, “SIK inhibitor for use in a method of treating an inflammatory and/or immune disorder” (Dana-Farber Cancer Institute, Inc., priority 2012, dated 2019).
